The series in a line: photoluminescence quantum yield (fraction); solvent given as SMILES.

Molecules are shown by their SMILES.

`O=S(=O)(c1cccc(N2c3ccccc3Oc3ccccc32)c1)c1cccc(N2c3ccccc3Oc3ccccc32)c1`: the photoluminescence quantum yield worked out at 0.208 (in CCCCC(CC)n1c2ccc(-n3c4ccccc4c4ccccc43)cc2c2cc(-n3c4ccccc4c4ccccc43)ccc21) and 0.321 (in c1cc(-n2c3ccccc3c3ccccc32)cc(-n2c3ccccc3c3ccccc32)c1).
Consider `CN(C)c1ccc2nc(-c3ccc(C=C(C#N)C#N)cc3)sc2c1`, for which the photoluminescence quantum yield by setting is: (in C1CCCCC1) 0.85; (in CC#N) 0; (in CO) 0; (in ClC(Cl)Cl) 0.64.
Regarding `COc1ccccc1-c1c(-c2ccccc2O)nc(-c2ccc(C(F)(F)F)cc2)n1-c1ccc(C)cc1`, the photoluminescence quantum yield is, setting by setting: (in C1CCOC1) 0.01; (in CC(C)O) 0.01; (in CO) 0.01; (in CS(C)=O) 0.01; (in ClC(Cl)Cl) 0.01; (in ClCCl) 0.01.
For the compound `COc1ccc(/C=C/C2=C3CCc4ccccc4C3=[O+][B-](F)(F)O2)cc1`, the photoluminescence quantum yield (in ClCCl) was determined as 0.04.
Regarding `[C-]#[N+]c1ccc(-c2ccc(NC)cc2)cc1`, the photoluminescence quantum yield amounted to 0.74 (in C1CCCCC1); 0.74 (in C1CCOC1); 0.77 (in C1COCCO1); 0.88 (in CC#N); 0.55 (in CC(C)=O); 0.49 (in CCCCCC). In addition, the photoluminescence quantum yield runs as follows: (in CCOC(C)=O) 0.63; (in CN(C)C=O) 0.49; (in CO) 0.65; (in CS(C)=O) 0.72; (in Cc1ccccc1) 0.59; (in ClC(Cl)Cl) 0.55. Further, the photoluminescence quantum yield (in ClCCl) came out at 0.85, the photoluminescence quantum yield (in O) turned out to be 0.0087 and the photoluminescence quantum yield (in c1ccncc1) came out at 0.03.
Regarding `Cc1cc(C)c(B(c2c(C)cc(C)cc2C)N2c3ccccc3C(C)(C)c3ccccc32)c(C)c1`, the photoluminescence quantum yield (in C1CCCCC1) is 0.931, the photoluminescence quantum yield (in Cc1ccccc1) is 0.802 and the photoluminescence quantum yield (in ClCCl) worked out at 0.9.
As for `Nc1cccc2cc3ccccc3cc12`, the photoluminescence quantum yield (in C1CCCCC1) worked out at 0.8.
Consider `CC1=CC(C)=[N+]2C1=C(c1ccc(C(=O)OC3C[C@@H]4CC[C@]3(C)C4(C)C)cc1)c1c(C)cc(C)n1[B-]2(F)F` (stereo partly specified), for which the photoluminescence quantum yield (in Cc1ccccc1) was determined as 0.37.
The compound `CC1(C)CC(=O)C2=C(C1)Oc1ccc3cc(O)ccc3c1C2c1ccccn1` (stereo unspecified) returned a photoluminescence quantum yield (in C1CCOC1) of 0.062; a photoluminescence quantum yield (in C1COCCO1) of 0.028; a photoluminescence quantum yield (in CC#N) of 0.082; a photoluminescence quantum yield (in CCCCCCC) of 0.05; a photoluminescence quantum yield (in CCO) of 0.067; a photoluminescence quantum yield (in CO) of 0.066. Where the note is “in O”, this compound yielded a photoluminescence quantum yield of 0.38.
`COc1cc2c(cc1OC)C1=C[C@H](c3ccccc3)C3(C(C(=O)O[C@@H]4C[C@H]5CC[C@@H]4C5)=C(C(=O)O[C@H]4C[C@@H]5CC[C@H]4C5)N1CC2)c1ccccc1-c1ccccc13` displayed a photoluminescence quantum yield (in ClCCl) of 0.00157.
With `CCN(CC)c1ccc2cc(/C=C/C(=C(C#N)C#N)c3ccc4c(c3)c3ccccc3n4CC)c(=O)oc2c1`, the photoluminescence quantum yield worked out at 0.174 (in CC(C)=O); 0.125 (in CCOC(C)=O); 0.194 (in CN(C)C=O); 0.185 (in CS(C)=O); 0.041 (in Cc1ccccc1); 0.146 (in ClCCl).
`CC1(C)c2ccccc2N(c2ccc(-c3nc(C#N)c(C#N)nc3-c3ccc(N4c5ccccc5C(C)(C)c5ccccc54)cc3)cc2)c2ccccc21`: the photoluminescence quantum yield reads like this: (in Cc1ccccc1) 0.2; (in c1cc(-c2cccc(-n3c4ccccc4c4ccccc43)c2)cc(-n2c3ccccc3c3ccccc32)c1) 0.67.
`N#Cc1cccc2c(N)c(-c3nn([C@H]4C[C@H](O)[C@@H](CO)O4)c4ncnc(N)c34)ccc12` gave a photoluminescence quantum yield (in C1COCCO1) of 0.47; a photoluminescence quantum yield (in CC#N) of 0.23; a photoluminescence quantum yield (in CC(C)O) of 0.19; a photoluminescence quantum yield (in CCO) of 0.13; a photoluminescence quantum yield (in CCOC(C)=O) of 0.29; a photoluminescence quantum yield (in CN(C)C=O) of 0.21. In addition, the photoluminescence quantum yield runs as follows: (in CO) 0.07; (in CS(C)=O) 0.18; (in OCC(O)CO) 0.12; (in OCCO) 0.08.
For `COc1ncccc1B(O)O`, the photoluminescence quantum yield by setting is: (in C1COCCO1) 0.423; (in CC(C)O) 0.549; (in CCCCCC) 0.502; (in CCCCCCC) 0.689; (in CCCCCCCC) 0.701; (in CCCCCCCCO) 0.317. This compound also displayed a photoluminescence quantum yield (in CCO) of 0.783 and a photoluminescence quantum yield (in CO) of 0.518.
Consider `Cc1ccc(N(c2ccc(C)cc2)c2ccc3c(c2)c2cc(N(c4ccc(C)cc4)c4ccc(C)cc4)ccc2n3-c2ccc(-c3nc4cccc5c4n3-c3ccccc3C5(C)C)cc2)cc1`, for which the photoluminescence quantum yield reads like this: (in Cc1ccccc1) 0.85; (in O=P(c1ccccc1)(c1ccccc1)c1ccccc1Oc1ccccc1P(=O)(c1ccccc1)c1ccccc1) 0.45.
As for `CCCCCCCCCCCCOc1ccc(C#CC(C#Cc2ccc(OCCCCCCCCCCCC)cc2)=Cc2cc(C=C(C#Cc3ccc(OCCCCCCCCCCCC)cc3)C#Cc3ccc(OCCCCCCCCCCCC)cc3)cc(C=C(C#Cc3ccc(OCCCCCCCCCCCC)cc3)C#Cc3ccc(OCCCCCCCCCCCC)cc3)c2)cc1`, for the setting “in CCOC(C)=O”, the photoluminescence quantum yield is 0.35.
On to `NNC(=O)NNN1C(=O)c2cc(S(=O)(=O)[O-])cc3c(N)c(S(=O)(=O)[O-])cc(c23)C1=O`, for which the photoluminescence quantum yield was found to be 0.06 (in C1COCCO1); 0.49 (in CC#N); 0.29 (in CC(C)=O); 0.62 (in CC(C)O); 0.75 (in CCCCCCCCO); 0.54 (in CCO). The photoluminescence quantum yield runs as follows: (in CCOC(C)=O) 0.03; (in CO) 0.25; (in CS(C)=O) 0.59; (in O) 0.21; (in OCCO) 0.5; (in c1ccncc1) 0.26.
Compound `Cc1ccccc1-c1c2cccc3c(-c4ccc(C(C)(C)C)cc4)cc4c(-c5ccccc5C)c5cccc6c(-c7ccc(C(C)(C)C)cc7)cc1c(c65)c4c32` returned a photoluminescence quantum yield (in ClCCl) of 0.28.
The compound `Cc1ccc(C)c2nc3c(=O)[nH]c(=O)[nH]c3nc12` gave a photoluminescence quantum yield (in CC#N) of 0.08.
Consider `CCN(CC)c1ccc(-c2nc3c4ccccc4n(C)c3nc2-c2ccc(B(c3c(C)cc(C)cc3C)c3c(C)cc(C)cc3C)cc2)cc1`, for which, under “in C1CCOC1”, the photoluminescence quantum yield was determined as 0.27.
`COC(=O)[C@H](Cc1ccc2oc3c(c2c1)=CC1=C(c2ccc(OC)cc2)c2cc4c5cc(C[C@H](NC(=O)OC(C)(C)C)C(=O)OC)ccc5oc4n2[B-](F)(F)[N+]=31)NC(=O)OC(C)(C)C`: the photoluminescence quantum yield reads like this: (in C1CCCCC1) 0.81; (in CCOC(C)=O) 0.86; (in CO) 0.82.
Consider `CC(C)=CCN1C(=O)c2cccc3c2c(cc2nc(C)oc23)C1=O`, for which the photoluminescence quantum yield (in CCO) was 0.011.
Take `COC1=[N+]2C(=C(c3ccccc3)c3ccc(OC)n3[B-]2(F)F)C=C1SC#N`: the photoluminescence quantum yield runs as follows: (in CC#N) 0.11; (in CCCCCC) 0.15; (in CCOC(C)=O) 0.14; (in CO) 0.14; (in ClCCl) 0.19.
`Cc1ccc(N2C(c3ccccc3N(C)C)=NC(c3ccccc3)C2c2ccccc2)cc1` (stereo unspecified) registered a photoluminescence quantum yield (in Cc1ccccc1) of 0.275.
Where the note is “in ClC(Cl)Cl”, `COc1ccc2c(C=C(C#N)C#N)cc3ccc4cc(C=C(C#N)C#N)c5ccc(OC)cc5c4c3c2c1` had a photoluminescence quantum yield of 0.23.

Source of the values: the Deep4Chem optical property database.
